Values of other authors, collected in US20170218035A1, “COMPOSITIONS AND METHODS FOR TREATMENT WITH HEMOPEXIN” (Bayer HealthCare LLC, priority 2014, published 2017).

Target: T1, Hemopexin (plasma based glycoprotein) (Homo sapiens, UniProt P02790)
T1 sequence (P02790 24-462): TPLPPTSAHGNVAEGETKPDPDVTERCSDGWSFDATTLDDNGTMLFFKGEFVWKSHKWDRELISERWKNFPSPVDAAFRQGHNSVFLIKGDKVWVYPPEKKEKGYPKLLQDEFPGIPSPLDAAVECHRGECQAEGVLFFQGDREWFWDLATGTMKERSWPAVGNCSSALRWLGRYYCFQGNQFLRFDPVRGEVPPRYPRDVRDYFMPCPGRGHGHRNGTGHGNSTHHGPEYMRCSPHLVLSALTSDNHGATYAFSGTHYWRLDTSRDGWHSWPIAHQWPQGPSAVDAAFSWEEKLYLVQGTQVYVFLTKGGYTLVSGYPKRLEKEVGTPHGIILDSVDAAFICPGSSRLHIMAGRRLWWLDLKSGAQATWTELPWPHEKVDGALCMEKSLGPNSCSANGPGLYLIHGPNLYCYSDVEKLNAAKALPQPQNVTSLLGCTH
Details: highest known binding affinity for heme; reported value

In the case of `C=CC1=C(C)c2cc3[nH]c(cc4nc(cc5[nH]c(cc1n2)c(C)c5CCC(=O)O)C(CCC(=O)O)=C4C)c(C)c3C=C.[Fe]` [heme], the Kd is given as < 1 pM.
